Publication PMC12040169 (PLOS Biology, 2025)

experiment: in vitro; conditions: human, hela cells, % viability

Structure (SMILES) | viability at 28.5 h, 10 µM [%]
CCOC(=O)C1=C(C)NC(=S)NC1c1ccc(O)c(OCC)c1[N+](=O)[O-] (stereo not drawn) [CBK265624] | 102
CC(C)N(CCOc1nccnc1-c1ccsc1)C(C)C [CBK106777] | 111
CC(NS(=O)(=O)c1ccc(Cl)cc1)C(=O)Nc1ccccc1Sc1ccccc1 (stereo not drawn) [CBK266984] | 98.4
CN1CCC[C@H]1C(=O)N1CCCC2(CCN(Cc3ccccc3)C2)C1 (stereo partly drawn) [CBK136901] | 90.7
CC1CCc2n[nH]c(C(=O)NC3CN4CCC3CC4)c2C1 (stereo not drawn) [CBK283193] | 108
COc1ccc(C(C)C)cc1-c1cc(NCCc2cccnc2)n2nccc2n1 [CBK037097] | 104
O=C(c1nn2c(C(F)(F)F)cc(-c3ccccc3)nc2c1Cl)N1CCOCC1 [CBK051498] | 90.4
c1ccc(C(Oc2nccnc2-c2ccncc2)c2ccccc2)cc1 [CBK106728] | 89.1
Cn1nc(-c2ccc(N3CCCCC3)c(NC(=O)COc3ccccc3)c2)c2ccccc2c1=O [CBK265780] | 97.3
O=C(O)c1cc(Sc2nnnn2-c2ccccc2)c2ccccc2c1O [CBK006925] | 87.8
CCC(c1ccc(F)cc1F)N1CCN(Cc2nc(C)no2)CC1 (stereo not drawn) [CBK304032] | 103
COc1ccc(CCNC(=O)CN2CCCC2c2cnn(C)c2)cc1 (stereo not drawn) [CBK305371] | 84.2
COc1ccc(C(=O)N2CCC3(CCCN(C(=O)c4cccnc4)C3)C2)cc1OC (stereo not drawn) [CBK131668] | 97.8
CNc1nc(C(C)(C)C)cs1 [CBK025373] | 88.2
OCCN(CCO)Cc1ccc(Cl)c(Cl)c1 [CBK261919] | 88.1
NC(=O)N/N=C/c1ccncc1 [CBK260922] | 107
CNC(c1ccncc1)C(NC)c1ccncc1 (stereo not drawn) [CBK015546] | 95.9
COc1ccccc1Oc1ccc(S(=O)(=O)N2CCOCC2)cc1S(=O)(=O)N1CCOCC1 [CBK265176] | 97.2
CC(C)C(=O)N1CC2(CCN(CCc3cccc4ccccc34)CC2)c2ccccc21 [CBK136978] | 101
O=C1Nc2ccc(-c3ccc(Cl)cc3)cc2C(=O)N2CCN(C(=O)c3cccnc3)C[C@H]12 [CBK289590] | 107
CCOc1cc(NC2CCN(C(=O)C3CCCCC3(C)C)CC2)ncn1 (stereo not drawn) [CBK305505] | 105
O=C(N/C(=C/c1ccccc1)C(=O)N1CCCCC1)c1ccccc1 [CBK261280] | 94.7
Nc1ncnc(N(c2ccccc2)c2ccccc2)n1 [CBK288139] | 104

Structure (SMILES) | viability at 28.5 h, 10 µM [%]
CCCSc1ccc2[nH]c(NC(=O)CSc3nc[nH]n3)nc2c1 [CBK270181] | 51.8
Cc1nc2cc(Cl)ccc2n1CCO [CBK110738] | 100
CC(C)[C@H](CO)Nc1nc(-c2cccc(OC(F)(F)F)c2)cnc1N [CBK063957] | 85.7
Nc1cc2ccccc2c(-c2cccc(C(F)(F)F)c2)n1 [CBK085721] | 101
COc1ccc(C2(C(=O)NCc3cnc(C)cn3)CC2)cc1 [CBK149830] | 98.5
Cc1ccc(Cc2cnc(NC(=O)C3CNC(=O)N3)s2)cc1F (stereo not drawn) [CBK305919] | 97.8
Cc1nsc2c1[C@H]1[C@H](O)[C@H](O)C[C@H]1C1(CCC1)N2 [CBK303258] | 100
CC(Sc1nc(-c2cccnc2)ccc1C#N)C(=O)O (stereo not drawn) [CBK267452] | 90.7
O=C1C(=CNCCC(c2ccccc2)c2ccccc2)C(=O)c2ccccc21 [CBK262987] | 97
N#Cc1c(NC(=O)CSc2nnc3c(n2)[nH]c2ccccc23)sc2c1CCCC2 [CBK262417] | 93
CCc1onc(C)c1C(=O)N1CCN(C2CCNC2)CC1 (stereo not drawn) [CBK304258] | 96
CC(C)NC(=O)NC[C@H]1C[C@@H]2CCN1C[C@@H]2c1cc(-c2cccs2)nn1C [CBK289103] | 90
CC(=O)Nc1ccc(S(=O)(=O)N(C)CC(=O)O)cc1 [CBK267570] | 97.8
c1nnc(SCc2ccc(CSc3nnc[nH]3)cc2)[nH]1 [CBK263282] | 93.5
CC(C)N1CC[C@@H]2[C@H]1C(=O)NC[C@H](CCC(=O)Nc1ccccc1)N2C [CBK289030] | 86.1
Cc1c(C(=O)NCCOc2ccc(-c3ccccc3)cc2)sc2nc[nH]c(=O)c12 [CBK285805] | 92.2
CC(CC(=O)O)n1nnc2ccccc21 (stereo not drawn) [CBK264139] | 113
Nc1ccc(-c2ccc(OC(F)(F)F)cc2)c2ccccc12 [CBK084327] | 84.6
COc1cccc(CN2C(=O)COc3ccc(C(=O)c4cccs4)cc32)c1 [CBK286412] | 96.1
NC(=O)c1cccc(COc2ccccc2C(=O)Nc2ccc(-c3ccsc3)cc2C(=O)O)c1 [CBK001718] | 82.6
Nc1nc2cc3c(cc2[nH]1)OCO3 [CBK023191] | 96.6
CC(=O)NC(c1nccs1)C1CCCN(CC2CCCCC2)C1 (stereo not drawn) [CBK285152] | 95.1
Cc1ccc(S(=O)(=O)n2c(SCc3ccccc3)nc3ccccc32)cc1 [CBK293933] | 104

Structure (SMILES) | viability at 28.5 h, 10 µM [%]
CN1CCCC(Cc2cc(-c3ccccc3)no2)(C(=O)N(C)C)C1 (stereo not drawn) [CBK281674] | 102
COc1ccc(C(NC(=O)C2CCN(C(=O)Oc3ccccc3)CC2)c2ccccc2C)cn1 (stereo not drawn) [CBK059715] | 91.1
CCc1nn2c(=O)cc(CN3C(=O)NC(C)(c4ccco4)C3=O)nc2s1 (stereo not drawn) [CBK305880] | 114
CS(=O)(=O)c1ccc(-c2cccc(COC3CCN(C(=O)Cc4ccc(C#N)cc4)CC3)c2)cc1 [CBK149513] | 96.3
C=CCNC(=O)N[C@H]1CCN2C(=O)c3ccc(Cl)cc3NC(=O)[C@@H]2C1 [CBK289569] | 95.9
COc1ccc(C(=O)N2CCC[C@H]3NC(=O)COc4ccccc4C(=O)N[C@@H]4CCOC[C@@H]4C/C=C/C[C@@H]32)cc1 [CBK292194] | 102
O=c1[nH]c(=O)c2cc(S(=O)(=O)NC3CCN(Cc4ccccc4)C3)ccc2[nH]1 (stereo not drawn) [CBK286380] | 109
COc1ccc(S(=O)(=O)N2CCN(C)CC2)cn1 [CBK269511] | 85.9
OCCN(Cc1ccncc1)CC1(c2ccc(Cl)cc2)CC1 [CBK282782] | 90.7
COc1ccccc1NC(=O)C(=O)NCc1cccnc1 [CBK287724] | 97.5
COc1cccc(NC(=O)N2CCN3C(=O)[C@H](CC4CCCCC4)NC(=O)[C@H]3C2)c1 [CBK289615] | 117
COc1ccc(CNC(=O)c2cc(S(=O)(=O)N3CCCC3)c[nH]2)cc1 [CBK304601] | 102
CCN(CC)CCCNc1nccc(-c2cn(C)nc2C)n1 [CBK306654] | 97.4
CCC#CC(=O)Nc1cncc(OC2CCNCC2)n1 [CBK026731T] | 93
N#Cc1c(C(F)(F)F)cc(-c2ccncc2)nc1SCCN1CCCCCC1 [CBK267451] | 85.3
CCOC(=O)NC(=O)Nc1cc2ccccc2c(Br)n1 [CBK063282] | 88.1
COc1ccc(-c2ccc3ccc(=O)[nH]c3n2)cc1C [CBK073712] | 108
O=C(NCCc1ccc(S(=O)(=O)NC(=O)NC2CCCCC2)cc1)NC1CCCCC1 [CBK011926] | 88.4
O=C(CCc1c[nH]c2ccccc12)Nc1ccccc1C(=O)O [CBK287242] | 108
CC(=O)NCCN1CCC(O)(c2ccc(C)cc2)CC1 [CBK283321] | 87.6
COCc1ccc(C(=O)N2CCCC(c3cc4ncccc4[nH]3)C2)o1 (stereo not drawn) [CBK282106] | 87
CCN1C(=O)C2(CC(=O)N(CC(=O)OC)C2=O)c2cc(Cl)ccc21 (stereo not drawn) [CBK075234] | 93.7
O=C(NN=C1CCCCCCCCCCC1)c1cc2ccccc2cc1O [CBK261706] | 102

Structure (SMILES) | viability at 28.5 h, 10 µM [%]
COC1C(O)C(CO)OC1n1cc(I)c(=O)[nH]c1=O (stereo not drawn) [CBK201211] | 95.1
C=CCNc1nc(N)c(/C(N)=N\C#N)s1 [CBK019028] | 99.3
COc1ccc(-c2noc(-c3cnccn3)n2)c(OC)c1 [CBK287878] | 83.6
O=C(NC(c1cccc([N+](=O)[O-])c1)c1cc(Cl)c2cccnc2c1O)c1cccnc1 (stereo not drawn) [CBK263987] | 92.5
Cc1ccc2c(c1)c(NC(=O)OC(C)C)nn2Cc1cc2c(cc1Cl)OCO2 [CBK048652] | 99.9
Cc1ccnc(NCC2CCN(CC(=O)NC3(C#N)CCCC3)C2)c1 (stereo not drawn) [CBK306128] | 85.8
COCC(=O)N1CCc2nc(-c3ccc(F)cc3)sc2C1 [CBK281673] | 107
COc1ccc(CNC(=O)c2cn[nH]c2-c2ccccc2)c(OC)c1 [CBK288057] | 100
CCOC(=O)C1(C2CCCCC2)CCN(C(=O)c2cscn2)CC1 [CBK137101] | 82.1
CC1(C)NC(=O)N(CC(O)COc2cc3ccccc3cc2C(=O)N2CCCCC2)C1=O (stereo not drawn) [CBK019029] | 120
O=C1CO[C@H]2CN(S(=O)(=O)c3ccccc3)C[C@H]2N1c1ccccc1 [CBK289236] | 93.7
O=C(O)CNC(=O)CN1C(=O)c2ccc(C(=O)O)cc2C1=O [CBK264080] | 90.8
CC(=O)c1ccc(-c2cn3ccnc3c(N3CCN(C)CC3)n2)s1 [CBK037957] | 94.4
Cc1nc(NS(=O)(=O)c2ccccc2)sc1NC(=O)Nn1cnnc1 [CBK266699] | 85.4
Nc1nonc1-n1nncc1CN1CCCCC1 [CBK307045] | 86.9
CCOc1c(CNCc2ccccn2)cccc1OC [CBK268104C] | 96.9
Cc1csc(NS(=O)(=O)CC(C)C)n1 [CBK021434] | 89.1
Cn1cc(NC(=O)c2ccc(COc3c(F)c(F)cc(F)c3F)o2)c(C(=O)O)n1 [CBK287014] | 98.5
CO/N=C(\C(=O)O)c1cn2cccnc2n1 [CBK262252] | 91.5
CCOC(=O)c1cnn(C)c1-c1ccc(F)cc1OC [CBK149233] | 92.8
O=C(CN1C(=O)CSc2ccccc21)Nc1ccccc1C(=O)N1CCOCC1 [CBK267343] | 104
